Data: US20080076129A1, “Method of Detecting an Increased Susceptibility to Breast Cancer” (priority 2000, published 2008)

T1: COMT (Homo sapiens, UniProt P21964)
T1 construct: made in house; host or cells: Escherichia coli DH5αF′Iq
T1 sequence (P21964 51-271): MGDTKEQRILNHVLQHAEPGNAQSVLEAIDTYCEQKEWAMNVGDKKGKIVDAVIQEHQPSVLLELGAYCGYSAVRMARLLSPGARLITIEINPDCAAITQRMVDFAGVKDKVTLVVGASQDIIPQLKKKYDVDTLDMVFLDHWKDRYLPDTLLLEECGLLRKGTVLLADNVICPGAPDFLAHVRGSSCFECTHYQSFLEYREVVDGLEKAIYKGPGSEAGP


Assays:
COMT = target: T1, COMT; assay: Assay of COMT activity, purified recombinant His-COMT, methylation of catechol estrogens; assay type: biochemical; details: for formation of product by COMT: methylation of 4-OHE2 and 4-OHE1; for Km: formation of the named product from its catechol estrogen, recombinant His-COMT, 200 μM SAM, 10 min at 37° C.; for kcat: formation of the named product, in min-1 (unit assumed); for Hill Coefficient: sigmoidal fit
Procedure: Assay of COMT Activity. Purified recombinant His-COMT (300 pmol) was reconstituted 0.5 ml of 100 mM KPO4, pH 7.4, containing 5 mM MgCl2, 10 mM β-mercaptoethanol, and 200 μM SAM. Reactions were initiated by adding varying concentrations of each individual catechol estrogen (2, 3, 6, 9, 12, 15, 20, 40, 60, 80, and 100 μM). Blanks contained all compounds except SAM. Reactions proceeded for 10 min at 37° C. with gentle shaking and then were terminated by addition of 2 ml CH2Cl2. To determine COMT activity in breast cancer cells, ZR-75 and MCF-7 cells were harvested at confluency and homogenized in 100 mM KPO4, pH 7.4, 5 mM MgCl2, 10 mM β-mercaptoethanol. Following ultracentrifugation of the cell homogenate (110,000 g, 30 min, 4° C.), the supernatant cytosol was divided into aliquots for ICELISA, protein determination (BCA assay; Pierce, Rockford, Ill.), and COMT assay. The latter was carried out in the presence of 200 μM SAM and 100 μM catechol estrogen for 20 min at 37° C. and then terminated by addition of CH2Cl2. The concentration of endogenous catechol and methoxy estrogens was below the limit of detection by gas chromatography/mass spectrometry.
Extraction and Gas Chromatography/Mass Spectrometry Analysis of Catechol Estrogens. A deuterated internal standard (100 μl of 8 mg/liter E2-d4 in methanol) was added and all estrogens extracted into the CH2Cl2 by vortex mixing for 30 s. 1.5 ml of the CH2Cl2 fraction was evaporated to dryness under air and volatile TMS derivatives prepared by heating the residue with 100 μl of 50% NO-bis(trimethylsilyl)trifluoroacetamide/1% trimethyl chlorosilane in acetonitrile at 56° C. for 30 min. The TMS derivatives of the estrogen metabolites were separated by gas chromatography (H-P 5890, Hewlett-Packard, Wilmington, Del.) on a 5% phenyl methyl silicone stationary phase fused silica capillary column (30 m×0.2 mm×0.5 μm film, HP5; Hewlett-Packard). Helium carrier gas was used at a flow of 1 ml/min. The injector was operated at 250° C., with 2 μl injected in the splitless mode, with a purge (60 ml/min helium) time of 0.6 min. The oven temperature was held at 180° C. for 0.5 min, then raised at 6° C./min to 250° C. where it was held for 17 min, then raised to 300° C. at 8° C./min to give a total run time of 35.42 min. This program permitted adequate separation of a wide range of estrogen metabolites. Retention times (in min) for the TMS derivatives were E1 20.13, E2 and E2-d4 21.89, 4-MeOE1 23.52, 2-MeO-3-MeOE1 (underivatized) 23.75, 2-OH-3-MeOE1 24.87, 2-MeOE1 25.2, 4-MeOE2 25.78, 2-OHE1 and 2-MeO-3-MeOE2 26.19, 2-OH-3-MeOE2 26.9, 2-MeOE2 27.18, 4-OHE1 27.27, 6α-OHE2 27.29, 2-OHE2 27.44, 4-OHE2 28.06, E3 28.38. The EI mass spectrometer (H-P 5970) was operated in the selected ion monitoring mode from 18 to 30 min. Ions monitored were TMS-E1 342, 257, 343; TMS2-E2-d4 420, 421, 287; TMS2-E2 416, 417, 285; TMS-4-MeOE1, TMS-2-OH-3-MeOE1, TMS-2-MeOE1 and TMS-3-MeO-4-OHE1 372, 373, 342; 2-MeO-3-MeOE1 314, 315, 229; TMS2-4-MeOE2, TMS2-2-OH-3-MeOE2, TMS2-2-MeOE2 and TMS2-3-MeO-4-OHE2 446, 447, 315; TMS2-2-OHE1 430, 431, 432; TMS-2-MeO-3-MeOE2 388, 389, 257; TMS2-4-OHE1 430, 431, 345; TMS2-6α-OHE2 414, 283, 309; TMS3-2-OHE2 and TMS3-4-OHE2 504, 505, 373; TMS3-E3 504, 505, 311 (FIG. 7). The instrument was calibrated by simultaneous preparation of an 11-point calibration over the range 0-22 nmol/tube of each compound. Sensitivity was determined to be between 0.02 and 0.04 nmol/tube (400-800 fmol on column) for the various compounds. […] Absolute extraction efficiency for E2, 2-OH-E2 and 4-OH-E2 at 3.5 nmol/tube was 119, 96, and 107% assessed by comparison to injections of spiked solvent samples onto the gas chromatograph. Internal standard added prior to extraction compensated for deviation from 100% recovery for all investigated compounds.
Statistical Analysis. […]

CYP1B1 = assay: Assay of CYP1B1 E2 hydroxylation activity; assay type: biochemical, human; details: for 2-OH-Estradiol kcat: E2 2-hydroxylation; for 4-OH-Estradiol kcat: E2 4-hydroxylation; for 16a-OH-Esrradiol kcat: E2 16α-hydroxylation
Procedure: Assay of CYP1B1 E2 Hydroxylation Activity. Purified CYP1B1 (200 pmol) was reconstituted with a 2-fold molar amount of recombinant rat NADPH-P450 reductase (400 pmol), purified as previously described, and 60 μg of L-α-dilauroyl-sn-glycero-3-phosphocholine in the presence of sodium cholate (0.005%, w/v) in 0.4 ml of 100 mM potassium phosphate buffer, pH 7.4, containing varying concentrations of E2 (2, 3, 6, 9, 12, 15, 20, 40, 60, 80, and 100 μM) and 1 mM ascorbate. An NADPH-generating system consisting of 5 mM glucose 6-phosphate and 0.5 U of glucose-6-phosphate dehydrogenase/ml was added and reactions initiated by adding NADP+ to a final concentration of 0.5 mM. Reactions proceeded for 10 min at 37° C. with gentle shaking and then were terminated by addition of 2 ml CH2Cl2.
Extraction and Gas Chromatography/Mass Spectrometry Analysis of E2 and Metabolites. A deuterated internal standard (100 μl of 8 mg/liter E2-2, 4, 16, 16-d4 in methanol; CDN Isotopes, Pointe-Claire, Quebec) was added and all steroids extracted into CH2Cl2 by vortex mixing for 30 s. 1.5 ml of the CH2Cl2 fraction was evaporated to dryness under air and volatile TMS derivatives prepared by heating the residue with 100 μl of 50% NO-bis(trimethylsilyl)trifluoroacetamide/1% trimethyl chlorosilane in acetonitrile at 56° C. for 30 min. The TMS derivatives of E2 and its metabolites were separated by gas chromatography (H-P 5890, Hewlett-Packard, Wilmington, Del.) on a 5% phenyl methyl silicone stationary phase fused silica capillary column (30 m×0.2 mm×0.5 μm film, HP5; Hewlett-Packard). Helium carrier gas was used at a flow of 1 ml/min. The injector was operated at 250° C., with 2 μl injected in the splitless mode, with a purge (60 ml/min helium) time of 0.6 min. The oven temperature was held at 189° C. for 0.5 min, then raised at 6° C./min to 250° C. where it was held for 17 min, then raised to 300° C. at 8° C./min to give a total run time of 35.42 min. […] The EI mass spectrometer (H-P 5970) was operated in the selected ion monitoring mode from 18 to 34 min. Ions monitored were TMS2-E2-d4 420, 288, 330; TMS2-E2 416, 285, 326; TMS3-2-OH-E2 504, 373; TMS3-4-OH-E2 504, 373, 325; TMS3-16α-OH-E2 345, 311, 504. The instrument was calibrated by simultaneous preparation of an 11-point calibration over the range […]/tube of each compound. […] Internal standard added prior to extraction compensated for deviation from 100% recovery.
Statistical Analysis. Kinetic parameters (Km and kcat) were determined by nonlinear regression analysis using the computer program GraphPad PRISM (San Diego, Calif.).

Km (COMT) | kcat (COMT) | Molecule | also measured
73 ± 16 µM | 2.8 ± 0.4 | COc1cc2c(cc1O)[C@H]1CC[C@]3(C)C(=O)CC[C@H]3[C@@H]1CC2 [2-OH-3-MeOE1] | 
24 ± 3 µM | 3.4 ± 0.2 | COc1c(O)ccc2c1CC[C@@H]1[C@@H]2CC[C@]2(C)[C@@H](O)CC[C@@H]12 [4-MeOE2] | Hill Coefficient (COMT): 1.6 ± 0.2
74 ± 8 µM | 3.3 ± 0.2 | COc1cc2c(cc1O)CC[C@@H]1[C@@H]2CC[C@]2(C)C(=O)CC[C@@H]12 [2-MeOE1] | 
108 ± 9 µM | 6.8 ± 0.4 | COc1cc2c(cc1O)CC[C@@H]1[C@@H]2CC[C@]2(C)[C@@H](O)CC[C@@H]12 [2-MeOE2] | 

The remaining lines, values behind:

Molecule | Km (COMT) | kcat (COMT) | also measured
COc1ccc2c(c1O)CC[C@@H]1[C@@H]2CC[C@]2(C)[C@@H](O)CC[C@@H]12 [3-MeO-4-OHE2] |  |  | formation of product by COMT (COMT): not observed
COc1c(O)ccc2c1CC[C@@H]1[C@@H]2CC[C@]2(C)C(=O)CC[C@@H]12 [4-MeOE1] | 53 ± 6 µM | 6.7 ± 0.4 | Hill Coefficient (COMT): 2.0 ± 0.4
COc1ccc2c(c1O)CC[C@@H]1[C@@H]2CC[C@]2(C)C(=O)CC[C@@H]12 [3-MeO-4-OHE1] |  |  | formation of product by COMT (COMT): not observed
COc1cc2c(cc1O)[C@H]1CC[C@]3(C)[C@@H](O)CC[C@H]3[C@@H]1CC2 [2-OH-3-MeOE2] | 51 ± 5 µM | 1.5 ± 0.1 | 
C[C@]12CC[C@@H]3c4cc(O)c(O)cc4CC[C@H]3[C@@H]1CCC2=O [2-OHE1] |  |  | pattern of rates of methylation (COMT; substrate 2-100 μM): typical hyperbolic patterns
Variant 4: recombinant CYP1B1 with 48Arg, 119Ala, 432Val, 453Ser (protein, UniProt Q16678 1-543, looked up, variant N453S) Cytochrome P450 1B1: MGTSLSPNDPWPLNPLSIQQTTLLLLLSVLATVHVGQRLLRQRRRQLRSAPPGPFAWPLIGNAAAVGQAAHLSFARLARRYGDVFQIRLGSCPIVVLNGERAIHQALVQQGSAFADRPAFASFRVVSGGRSMAFGHYSEHWKVQRRAAHSMMRNFFTRQPRSRQVLEGHVLSEARELVALLVRGSADGAFLDPRPLTVVAVANVMSAVCFGCRYSHDDPEFRELLSHNEEFGRTVGAGSLVDVMPWLQYFPNPVRTVFREFEQLNRNFSNFILDKFLRHCESLRPGAAPRDMMDAFILSAEKKAAGDSHGGGARLDLENVPATITDIFGASQDTLSTALQWLLLLFTRYPDVQTRVQAELDQVVGRDRLPCMGDQPNLPYVLAFLYEAMRFSSFVPVTIPHATTANTSVLGYHIPKDTVVFVNQWSVNHDPLKWPNPENFDPARFLDKDGLISKDLTSRVMIFSVGKRRCIGEELSKMQLFLFISILAHQCDFRANPNEPAKMNFSYGLTIKPKSFKVNVTLRESMELLDSAVQNLQAKETCQ |  |  | 2-OH-Estradiol kcat (CYP1B1): 0.0467 ± 0.0033 s⁻¹; 4-OH-Estradiol kcat (CYP1B1): 0.075 ± 0.005 s⁻¹; 16a-OH-Esrradiol kcat (CYP1B1): 0.0065 ± 0.00033 s⁻¹
Variant 1: recombinant CYP1B1 with 48Gly, 119Ala, 432Val, 453Asn (protein, UniProt Q16678 1-543, looked up, variant R48G) Cytochrome P450 1B1: MGTSLSPNDPWPLNPLSIQQTTLLLLLSVLATVHVGQRLLRQRRRQLGSAPPGPFAWPLIGNAAAVGQAAHLSFARLARRYGDVFQIRLGSCPIVVLNGERAIHQALVQQGSAFADRPAFASFRVVSGGRSMAFGHYSEHWKVQRRAAHSMMRNFFTRQPRSRQVLEGHVLSEARELVALLVRGSADGAFLDPRPLTVVAVANVMSAVCFGCRYSHDDPEFRELLSHNEEFGRTVGAGSLVDVMPWLQYFPNPVRTVFREFEQLNRNFSNFILDKFLRHCESLRPGAAPRDMMDAFILSAEKKAAGDSHGGGARLDLENVPATITDIFGASQDTLSTALQWLLLLFTRYPDVQTRVQAELDQVVGRDRLPCMGDQPNLPYVLAFLYEAMRFSSFVPVTIPHATTANTSVLGYHIPKDTVVFVNQWSVNHDPLKWPNPENFDPARFLDKDGLINKDLTSRVMIFSVGKRRCIGEELSKMQLFLFISILAHQCDFRANPNEPAKMNFSYGLTIKPKSFKVNVTLRESMELLDSAVQNLQAKETCQ |  |  | 2-OH-Estradiol kcat (CYP1B1): 0.0533 ± 0.0033 s⁻¹; 4-OH-Estradiol kcat (CYP1B1): 0.1 ± 0.0033 s⁻¹; 16a-OH-Esrradiol kcat (CYP1B1): 0.00933 ± 0.00067 s⁻¹
